Experimental data: patent US10196403B2, “Compounds and compositions and uses thereof” (Sunovion Pharmaceuticals Inc., priority 2016, dated 2019)

Test system: mice
Assay: Neuropharmacological Assay (SmartCube)
Assay type: in vivo
Conditions: for minimal effective dose: Mus musculus, read-out: POTENCY (minimal effective dose, MED); for minimal effective dose / POTENCY (minimal effective dose, MED): MED = dose having 50% or more total activity in SmartCube; for AD: ADHD (SmartCube probability) / AG: analgesic (SmartCube probability) / AX: anxiolytic (SmartCube probability) / CE: cognitive enhancer (SmartCube probability) / DP: anti-depressant (SmartCube probability) / MS: mood stabilizer (SmartCube probability) / PS: anti-psychotic (SmartCube probability) / SD: sedative hypnotic (SmartCube probability) / UN: uncharacterized CNS activity (SmartCube probability): mice, i.p. 15 min before test, most efficacious dose(s) of 3 doses
Method in brief: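 Compounds in NMP/PEG/propylene glycol given i.p. 15 min before automated video-based behavioral testing, at 3 doses; behavioral signature compared with a reference-compound database to give probability per drug class, reported at most efficacious dose. MED = dose (mpk) giving ≥50% total activity; doses typically 0.3–30 mpk.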

Compound	minimal effective dose	AD: ADHD (SmartCube probability)	AG: analgesic (SmartCube probability)	AX: anxiolytic (SmartCube probability)	CE: cognitive enhancer (SmartCube probability)	DP: anti-depressant (SmartCube probability)	MS: mood stabilizer (SmartCube probability)	PS: anti-psychotic (SmartCube probability)	SD: sedative hypnotic (SmartCube probability)	UN: uncharacterized CNS activity (SmartCube probability)	POTENCY (minimal effective dose, MED)
CNC[C@@H]1OCCCc2cccc(F)c21 [Example 61, (R)-1-(9-fluoro-1,3,4,5-tetrahydrobenzo[c]oxepin-1-yl)-N-methylmethanamine]	3 to 10 mg/kg	+ (LOQ≤ + <5%)	+ (LOQ≤ + <5%)	++ (5%≤ ++ <25%)	+ (LOQ≤ + <5%)	+ (LOQ≤ + <5%)	+ (LOQ≤ + <5%)	++++ (50%≤ ++++)	+ (LOQ≤ + <5%)	+++ (25%≤ +++ <50%)	
CNC[C@H]1OCCc2c(OC)cccc21 [Example 62, (S)-1-(5-methoxyisochroman-1-yl)-N-methylmethanamine]	10 to 30 mg/kg	+ (LOQ≤ + <5%)	++ (5%≤ ++ <25%)	++++ (50%≤ ++++)	+ (LOQ≤ + <5%)	+ (LOQ≤ + <5%)	+ (LOQ≤ + <5%)	+ (LOQ≤ + <5%)	+ (LOQ≤ + <5%)	++ (5%≤ ++ <25%)	
CNC[C@@H]1OCCc2c(OC)cccc21 [Example 63, (R)-1-(5-methoxyisochroman-1-yl)-N-methylmethanamine]		++ (5%≤ ++ <25%)	+ (LOQ≤ + <5%)	++ (5%≤ ++ <25%)	+ (LOQ≤ + <5%)	++++ (50%≤ ++++)	+ (LOQ≤ + <5%)	+ (LOQ≤ + <5%)	++ (5%≤ ++ <25%)	++++ (50%≤ ++++)	A-B
CNC[C@H]1OCCc2ccc(Cl)cc21 [Example 64, (S)-1-(7-chloroisochroman-1-yl)-N-methylmethanamine]		+ (LOQ≤ + <5%)	++ (5%≤ ++ <25%)	+++ (25%≤ +++ <50%)	++ (5%≤ ++ <25%)	+ (LOQ≤ + <5%)	+ (LOQ≤ + <5%)	++ (5%≤ ++ <25%)	++ (5%≤ ++ <25%)	++++ (50%≤ ++++)	A-B
CNC[C@@H]1OCCc2ccc(Cl)cc21 [Example 65, (R)-1-(7-chloroisochroman-1-yl)-N-methylmethanamine]		+ (LOQ≤ + <5%)	++ (5%≤ ++ <25%)	++ (5%≤ ++ <25%)	+ (LOQ≤ + <5%)	++ (5%≤ ++ <25%)	+ (LOQ≤ + <5%)	++ (5%≤ ++ <25%)	++ (5%≤ ++ <25%)	++++ (50%≤ ++++)	A-B
NC[C@H]1OCCc2c(Cl)cccc21 [Example 66, (S)-(5-chloroisochroman-1-yl)methanamine]		+ (LOQ≤ + <5%)	+ (LOQ≤ + <5%)	++ (5%≤ ++ <25%)	+ (LOQ≤ + <5%)	++++ (50%≤ ++++)	+ (LOQ≤ + <5%)	+ (LOQ≤ + <5%)	+ (LOQ≤ + <5%)	+ (LOQ≤ + <5%)	A-B
NC[C@@H]1OCCc2c(Cl)cccc21 [Example 67, (R)-(5-chloroisochroman-1-yl)methanamine]		+ (LOQ≤ + <5%)	+ (LOQ≤ + <5%)	++ (5%≤ ++ <25%)	+ (LOQ≤ + <5%)	++++ (50%≤ ++++)	+ (LOQ≤ + <5%)	++ (5%≤ ++ <25%)	+ (LOQ≤ + <5%)	+ (LOQ≤ + <5%)	A-B
CNC[C@H]1OCc2cccc(F)c21 [Example 68, (S)-1-(7-fluoro-1,3-dihydroisobenzofuran-1-yl)-N-methylmethanamine]	3 to 10 mg/kg	+ (LOQ≤ + <5%)	++ (5%≤ ++ <25%)	++ (5%≤ ++ <25%)	++ (5%≤ ++ <25%)	++ (5%≤ ++ <25%)	+ (LOQ≤ + <5%)	++ (5%≤ ++ <25%)	+++ (25%≤ +++ <50%)	++ (5%≤ ++ <25%)	
CNC[C@@H]1OCc2cccc(F)c21 [Example 69, (R)-1-(7-fluoro-1,3-dihydroisobenzofuran-1-yl)-N-methylmethanamine]	< 3 mg/kg	++ (5%≤ ++ <25%)	+++ (25%≤ +++ <50%)	++ (5%≤ ++ <25%)	+ (LOQ≤ + <5%)	++ (5%≤ ++ <25%)	++ (5%≤ ++ <25%)	++ (5%≤ ++ <25%)	+ (LOQ≤ + <5%)	++++ (50%≤ ++++)	
NC[C@H]1OCCc2cccc(Cl)c21 [Example 70, (S)-(8-chloroisochroman-1-yl)methanamine]	3 to 10 mg/kg	+ (LOQ≤ + <5%)	++ (5%≤ ++ <25%)	++ (5%≤ ++ <25%)	++ (5%≤ ++ <25%)	++ (5%≤ ++ <25%)	+ (LOQ≤ + <5%)	+++ (25%≤ +++ <50%)	++ (5%≤ ++ <25%)	+++ (25%≤ +++ <50%)	
NC[C@@H]1OCCc2cccc(Cl)c21 [Example 71, (R)-(8-chloroisochroman-1-yl)methanamine]	< 3 mg/kg	+ (LOQ≤ + <5%)	++ (5%≤ ++ <25%)	++ (5%≤ ++ <25%)	++ (5%≤ ++ <25%)	+ (LOQ≤ + <5%)	+ (LOQ≤ + <5%)	++ (5%≤ ++ <25%)	+ (LOQ≤ + <5%)	++++ (50%≤ ++++)	
